According to US20240000872A1, “NOVEL BACTERIOPHAGE THAT LYSES ACINETOBACTER GENUS BACTERIA HAVING RESISTANCE TO ANTIBIOTICS” (priority 2020, published 2024):

System: Acinetobacter baumannii strains
Assay: Antibiotic susceptibility test (CLSI disk diffusion test method, read per CLSI 2016); further: key: ‘S’ means susceptible; ‘I’ means intermediate; ‘R’ means resistant
Type: cell-based

C[C@H]1COc2c(N3CCN(C)CC3)c(F)cc3c(=O)c(C(=O)O)cn1c23 [Levofloxacin, levofloxacin]
antibiotic susceptibility class (host strain YMC14/01/C29): R | antibiotic susceptibility class (host strain YMC14/01/IP122): I | antibiotic susceptibility class (host strain YMC14/01/L8): R | antibiotic susceptibility class (host strain YMC14/01/P31): R | antibiotic susceptibility class (host strain YMC14/01/P117): I | antibiotic susceptibility class (host strain YMC14/01/P224): R | antibiotic susceptibility class (host strain YMC14/01/P727): R | antibiotic susceptibility class (host strain YMC14/01/P728): R | antibiotic susceptibility class (host strain YMC14/01/R130): R | antibiotic susceptibility class (host strain YMC14/01/R160): R | antibiotic susceptibility class (host strain YMC14/01/R198): R | antibiotic susceptibility class (host strain YMC14/01/R257): R | antibiotic susceptibility class (host strain YMC14/01/R270): R | antibiotic susceptibility class (host strain YMC14/01/R324): R | antibiotic susceptibility class (host strain YMC14/01/R443): R | antibiotic susceptibility class (host strain YMC14/01/R451): R | antibiotic susceptibility class (host strain YMC14/01/R560): R | antibiotic susceptibility class (host strain YMC14/01/R617): R | antibiotic susceptibility class (host strain YMC14/01/R671): R | antibiotic susceptibility class (host strain YMC14/01/R732): R | antibiotic susceptibility class (host strain YMC14/01/R767): R | antibiotic susceptibility class (host strain YMC14/01/R904): R | antibiotic susceptibility class (host strain YMC14/01/R905): R | antibiotic susceptibility class (host strain YMC14/01/R921): R | antibiotic susceptibility class (host strain YMC14/01/R941): R | antibiotic susceptibility class (host strain YMC14/01/R958): R | antibiotic susceptibility class (host strain YMC14/01/R1006): R | antibiotic susceptibility class (host strain YMC14/01/R1199): R | antibiotic susceptibility class (host strain YMC14/01/R1659): R | antibiotic susceptibility class (host strain YMC14/01/R1722): R | antibiotic susceptibility class (host strain YMC14/01/R1752): R | antibiotic susceptibility class (host strain YMC14/01/R2429): R | antibiotic susceptibility class (host strain YMC14/01/R2572): R | antibiotic susceptibility class (host strain YMC14/01/R2855): R | antibiotic susceptibility class (host strain YMC14/01/R2945): R | antibiotic susceptibility class (host strain YMC14/01/R3007): R | antibiotic susceptibility class (host strain YMC14/01/R3129): R | antibiotic susceptibility class (host strain YMC14/01/R3317): R | antibiotic susceptibility class (host strain YMC14/01/R3474): I | antibiotic susceptibility class (host strain YMC14/01/R3574): R | antibiotic susceptibility class (host strain YMC14/01/U313): R | antibiotic susceptibility class (host strain YMC14/01/U318): R | antibiotic susceptibility class (host strain YMC14/02/L18): R | antibiotic susceptibility class (host strain YMC14/02/P47): R | antibiotic susceptibility class (host strain YMC14/02/R1860): R | antibiotic susceptibility class (host strain YMC14/02/R2417): R | antibiotic susceptibility class (host strain YMC14/02/R2599): R | antibiotic susceptibility class (host strain YMC14/02/R2668): R | antibiotic susceptibility class (host strain YMC14/02/R2758): R | antibiotic susceptibility class (host strain YMC14/02/R2781): R | antibiotic susceptibility class (host strain YMC14/02/R3106): R | antibiotic susceptibility class (host strain YMC14/02/R3419): R | antibiotic susceptibility class (host strain YMC14/02/U1607): R | antibiotic susceptibility class (host strain YMC14/03/L9): R | antibiotic susceptibility class (host strain YMC14/03/P471): R | antibiotic susceptibility class (host strain YMC14/03/R122): R | antibiotic susceptibility class (host strain YMC14/03/R217): R | antibiotic susceptibility class (host strain YMC14/03/R380): R | antibiotic susceptibility class (host strain YMC14/03/R618): R | antibiotic susceptibility class (host strain YMC14/03/R2144): R | antibiotic susceptibility class (host strain YMC14/03/U4616): R | antibiotic susceptibility class (host strain YMC14/04/R1078): R | antibiotic susceptibility class (host strain YMC14/04/R1080): R | antibiotic susceptibility S/I/R (host strain YMC14/06/R2359): R | susceptibility category (S/I/R) (host strain YMC14/06/R2359): R | antibiotic susceptibility S/I/R (host strain YMC14/08/R1169): R | susceptibility category (S/I/R) (host strain YMC14/08/R1169): R | antibiotic susceptibility S/I/R (host strain YMC14/08/T90): R | susceptibility category (S/I/R) (host strain YMC14/08/T90): R | antibiotic susceptibility S/I/R (host strain YMC15/02/R436): R | susceptibility category (S/I/R) (host strain YMC15/02/R436): R | antibiotic susceptibility S/I/R (host strain YMC15/02/T28): R | susceptibility category (S/I/R) (host strain YMC15/02/T28): R | antibiotic susceptibility S/I/R (host strain YMC15/03/R1604): R | susceptibility category (S/I/R) (host strain YMC15/03/R1604): R | antibiotic susceptibility S/I/R (host strain YMC15/09/R1869): R | susceptibility category (S/I/R) (host strain YMC15/09/R1869): R | antibiotic susceptibility S/I/R (host strain YMC16/01/P11): R | susceptibility category (S/I/R) (host strain YMC16/01/P11): R | antibiotic susceptibility S/I/R (host strain YMC16/01/R123): R | susceptibility category (S/I/R) (host strain YMC16/01/R123): R | antibiotic susceptibility S/I/R (host strain YMC16/01/R198): R | susceptibility category (S/I/R) (host strain YMC16/01/R198): R | antibiotic susceptibility S/I/R (host strain YMC16/01/R353): R | susceptibility category (S/I/R) (host strain YMC16/01/R353): R | antibiotic susceptibility S/I/R (host strain YMC16/01/R380): R | susceptibility category (S/I/R) (host strain YMC16/01/R380): R | antibiotic susceptibility S/I/R (host strain YMC16/01/R397): R | susceptibility category (S/I/R) (host strain YMC16/01/R397): R | antibiotic susceptibility S/I/R (host strain YMC16/01/R405): R | susceptibility category (S/I/R) (host strain YMC16/01/R405): R | antibiotic susceptibility S/I/R (host strain YMC16/03/R4461): R | susceptibility category (S/I/R) (host strain YMC16/03/R4461): R | antibiotic susceptibility S/I/R (host strain YMC16/05/R2210): R | susceptibility category (S/I/R) (host strain YMC16/05/R2210): R | antibiotic susceptibility S/I/R (host strain YMC16/07/R2512): R | susceptibility category (S/I/R) (host strain YMC16/07/R2512): R | antibiotic susceptibility S/I/R (host strain YMC16/09/R2471): R | susceptibility category (S/I/R) (host strain YMC16/09/R2471): R | antibiotic susceptibility S/I/R (host strain YMC16/10/R2537): R | susceptibility category (S/I/R) (host strain YMC16/10/R2537): R | antibiotic susceptibility S/I/R (host strain YMC16/12/B11422): R | susceptibility category (S/I/R) (host strain YMC16/12/B11422): R | antibiotic susceptibility S/I/R (host strain YMC16/12/B11449): R | susceptibility category (S/I/R) (host strain YMC16/12/B11449): R | antibiotic susceptibility S/I/R (host strain YMC16/12/B13325): R | susceptibility category (S/I/R) (host strain YMC16/12/B13325): R | antibiotic susceptibility S/I/R (host strain YMC16/12/P503): R | susceptibility category (S/I/R) (host strain YMC16/12/P503): R | antibiotic susceptibility S/I/R (host strain YMC16/12/R4637): R | susceptibility category (S/I/R) (host strain YMC16/12/R4637): R | antibiotic susceptibility S/I/R (host strain YMC17/01/B8053): R | susceptibility category (S/I/R) (host strain YMC17/01/B8053): R | antibiotic susceptibility S/I/R (host strain YMC17/01/B10087): R | susceptibility category (S/I/R) (host strain YMC17/01/B10087): R | antibiotic susceptibility S/I/R (host strain YMC17/01/B12075): R | susceptibility category (S/I/R) (host strain YMC17/01/B12075): R | antibiotic susceptibility S/I/R (host strain YMC17/01/B13454): R | susceptibility category (S/I/R) (host strain YMC17/01/B13454): R | antibiotic susceptibility S/I/R (host strain YMC17/01/P518): R | susceptibility category (S/I/R) (host strain YMC17/01/P518): R | antibiotic susceptibility S/I/R (host strain YMC17/01/R2812): R | susceptibility category (S/I/R) (host strain YMC17/01/R2812): R | antibiotic susceptibility S/I/R (host strain YMC17/02/B14): R | susceptibility category (S/I/R) (host strain YMC17/02/B14): R | antibiotic susceptibility S/I/R (host strain YMC17/02/B87): R | susceptibility category (S/I/R) (host strain YMC17/02/B87): R | antibiotic susceptibility S/I/R (host strain YMC17/02/B721): R | susceptibility category (S/I/R) (host strain YMC17/02/B721): R | antibiotic susceptibility S/I/R (host strain YMC17/02/B4039): R | susceptibility category (S/I/R) (host strain YMC17/02/B4039): R | antibiotic susceptibility S/I/R (host strain YMC17/02/B4520): R | susceptibility category (S/I/R) (host strain YMC17/02/B4520): R | antibiotic susceptibility S/I/R (host strain YMC17/02/B4864): S | susceptibility category (S/I/R) (host strain YMC17/02/B4864): S | antibiotic susceptibility S/I/R (host strain YMC17/02/B8414): R | susceptibility category (S/I/R) (host strain YMC17/02/B8414): R | antibiotic susceptibility S/I/R (host strain YMC17/02/P523): R | susceptibility category (S/I/R) (host strain YMC17/02/P523): R | antibiotic susceptibility S/I/R (host strain YMC17/02/R541): R | susceptibility category (S/I/R) (host strain YMC17/02/R541): R | antibiotic susceptibility S/I/R (host strain YMC17/02/R2392): R | susceptibility category (S/I/R) (host strain YMC17/02/R2392): R | antibiotic susceptibility S/I/R (host strain YMC17/03/B4730): R | susceptibility category (S/I/R) (host strain YMC17/03/B4730): R | antibiotic susceptibility S/I/R (host strain YMC17/03/B5000): R | susceptibility category (S/I/R) (host strain YMC17/03/B5000): R | antibiotic susceptibility S/I/R (host strain YMC17/03/P971): R | susceptibility category (S/I/R) (host strain YMC17/03/P971): R | antibiotic susceptibility S/I/R (host strain YMC17/03/R348): R | susceptibility category (S/I/R) (host strain YMC17/03/R348): R | antibiotic susceptibility S/I/R (host strain YMC17/03/R585): R | susceptibility category (S/I/R) (host strain YMC17/03/R585): R | antibiotic susceptibility S/I/R (host strain YMC17/03/R1888): R | susceptibility category (S/I/R) (host strain YMC17/03/R1888): R | antibiotic susceptibility S/I/R (host strain YMC17/03/R3279): R | susceptibility category (S/I/R) (host strain YMC17/03/R3279): R | antibiotic susceptibility S/I/R (host strain YMC17/03/R4077): R | susceptibility category (S/I/R) (host strain YMC17/03/R4077): R | antibiotic susceptibility S/I/R (host strain YMC17/03/R4607): R | susceptibility category (S/I/R) (host strain YMC17/03/R4607): R | antibiotic susceptibility S/I/R (host strain YMC17/04/R488): R | susceptibility category (S/I/R) (host strain YMC17/04/R488): R | antibiotic susceptibility S/I/R (host strain YMC17/04/R640): R | susceptibility category (S/I/R) (host strain YMC17/04/R640): R | antibiotic susceptibility S/I/R (host strain YMC/17/05/R1095): R | susceptibility category (S/I/R) (host strain YMC/17/05/R1095): R
